Assay results published in paper PMC7587962, “Evaluation of Cytotoxicity and α-Glucosidase Inhibitory Activity of Amide and Polyamino-Derivatives of Lupane Triterpenoids” (Molecules, 2020).

How the values were obtained:
CCRF-CEM = test: NCI-60 SRB screen: leukemia CCRF-CEM; assay type: cell-based; details: Homo sapiens, 48 h
K-562 = test: NCI-60 SRB screen: leukemia K-562; assay type: cell-based, human; details: K-562
MOLT-4 = test: NCI-60 SRB screen: leukemia MOLT-4; assay type: cell-based; details: Homo sapiens, 48 h, MOLT-4
RPMI-8226 = test: NCI-60 SRB screen: leukemia RPMI-8226; assay type: cell-based; details: Homo sapiens, 48 h, RPMI-8226
A549/ATCC = test: NCI-60 SRB screen: non-small cell lung cancer A549/ATCC; assay type: cell-based, human; details: A549/ATCC
EKVX = test: NCI-60 SRB screen: non-small cell lung cancer EKVX; assay type: cell-based, human
HOP-62 = test: NCI-60 SRB screen: non-small cell lung cancer HOP-62; assay type: cell-based, human; details: HOP-62
HOP-92 = test: NCI-60 SRB screen: non-small cell lung cancer HOP-92; assay type: cell-based, human; details: HOP-92
NCI-H23 = test: NCI-60 SRB screen: non-small cell lung cancer NCI-H23; assay type: cell-based, human; details: NCI-H23
NCI-H322M = test: NCI-60 SRB screen: non-small cell lung cancer NCI-H322M; assay type: cell-based, human
NCI-H460 = test: NCI-60 SRB screen: non-small cell lung cancer NCI-H460; assay type: cell-based; details: Homo sapiens, 48 h, NCI-H460
HCC-2998 = test: NCI-60 SRB screen: colon cancer HCC-2998; assay type: cell-based, human; details: HCC-2998
HT29 = test: NCI-60 SRB screen: colon cancer HT29; assay type: cell-based; details: Homo sapiens, HT29
KM12 = test: NCI-60 SRB screen: colon cancer KM12; assay type: cell-based, human; details: KM12
SF-268 = test: NCI-60 SRB screen: CNS cancer SF-268; assay type: cell-based, human; details: SF-268
SF-295 = test: NCI-60 SRB screen: CNS cancer SF-295; assay type: cell-based, human; details: SF-295
SF-539 = test: NCI-60 SRB screen: CNS cancer SF-539; assay type: cell-based, human; details: SF-539
SNB-75 = test: NCI-60 SRB screen: CNS cancer SNB-75; assay type: cell-based, human; details: SNB-75
U251 = test: NCI-60 SRB screen: CNS cancer U251; assay type: cell-based; details: Homo sapiens, U251
MALME-3M = test: NCI-60 SRB screen: melanoma MALME-3M; assay type: cell-based, human; details: MALME-3M
MDA-MB-435 = test: NCI-60 SRB screen: melanoma MDA-MB-435; assay type: cell-based, human; details: MDA-MB-435
SK-MEL-5 = test: NCI-60 SRB screen: melanoma SK-MEL-5; assay type: cell-based, human; details: SK-MEL-5
IGROV1 = test: NCI-60 SRB screen: ovarian cancer IGROV1; assay type: cell-based, human; details: IGROV1
OVCAR-3 = test: NCI-60 SRB screen: ovarian cancer OVCAR-3; assay type: cell-based, human; details: OVCAR-3
OVCAR-5 = test: NCI-60 SRB screen: ovarian cancer OVCAR-5; assay type: cell-based, human; details: OVCAR-5
OVCAR-8 = test: NCI-60 SRB screen: ovarian cancer OVCAR-8; assay type: cell-based, human; details: OVCAR-8
ACHN = test: NCI-60 SRB screen: renal cancer ACHN; assay type: cell-based, human
CAKI-1 = test: NCI-60 SRB screen: renal cancer CAKI-1; assay type: cell-based, human; details: CAKI-1
RXF 393 = test: NCI-60 SRB screen: renal cancer RXF 393; assay type: cell-based, human; details: RXF 393
TK-10 = test: NCI-60 SRB screen: renal cancer TK-10; assay type: cell-based, human; details: TK-10
DU-145 = test: NCI-60 SRB screen: prostate cancer DU-145; assay type: cell-based, human; details: DU-145
MDA-MB-231/ATCC = test: NCI-60 SRB screen: breast cancer MDA-MB-231/ATCC; assay type: cell-based; details: Homo sapiens, 48 h
HS 578T = test: NCI-60 SRB screen: breast cancer HS 578T; assay type: cell-based, human; details: HS 578T
T-47D = test: NCI-60 SRB screen: breast cancer T-47D; assay type: cell-based, human; details: T-47D
NSCL cancer subpanel = test: NCI-60 screen, subpanel NSCL cancer
Renal Cancer subpanel = test: NCI-60 screen, subpanel Renal Cancer
Ovarian Cancer subpanel = test: NCI-60 screen, subpanel Ovarian Cancer
[1] = single dose 10 µM, read-out: Percentage Cell Growth
[2] = five concentrations, SRB, read-out: GI50
[3] = Homo sapiens, five concentrations, 48 h, SRB, read-out: GI50

## C=C(C)[C@@H]1CC[C@]2(C(=O)NCCNCCNCCN)CC[C@]3(C)[C@H](CC[C@@H]4[C@@]5(C)CC[C@H](O)C(C)(C)[C@@H]5CC[C@]43C)[C@@H]12 [Compound 6]
CCRF-CEM; [1]
  activity at 10 µM: 5.18%
CCRF-CEM; [2]
  GI50: 4.55 µM
K-562; Homo sapiens, K562, five concentrations, 48 h, SRB, read-out: GI50
  GI50: 6.9 µM
K-562; single dose 10 µM
  Percentage Cell Growth: −15.78%
MOLT-4; [1]
  activity at 10 µM: 1.18%
MOLT-4; [2]
  GI50: 11.5 µM
RPMI-8226; [1]
  activity at 10 µM: -8.15%
RPMI-8226; [2]
  GI50: 2.81 µM
A549/ATCC; single dose 10 µM
  Percentage Cell Growth: −64.63%
A549/ATCC; [3]
  GI50: 4.97 µM
EKVX; [3]
  GI50: 10.5 µM
EKVX; single dose 10 µM
  Percentage Cell Growth: −11.36%
HOP-62; single dose 10 µM
  Percentage Cell Growth: −69.12%
HOP-62; [3]
  GI50: 16.5 µM
HOP-92; single dose 10 µM
  Percentage Cell Growth: −65.35%
HOP-92; [3]
  GI50: 4.61 µM
NCI-H23; [3]
  GI50: 14.7 µM
NCI-H23; single dose 10 µM
  Percentage Cell Growth: −51.70%
NCI-H322M; [3]
  GI50: 15.1 µM
NCI-H322M; single dose 10 µM
  Percentage Cell Growth: −83.84%
NCI-H460; [1]
  activity at 10 µM: -100%
NCI-H460; [2]
  GI50: 14.7 µM
HCC-2998; single dose 10 µM
  Percentage Cell Growth: −90.36%
HCC-2998; [3]
  GI50: 14.1 µM
HT29; HT-29, 48 h, single dose 10 µM, read-out: Percentage Cell Growth
  activity at 10 µM: -39.6%
HT29; HT-29, five concentrations, 48 h, SRB, read-out: GI50
  GI50: 14.6 µM
KM12; [3]
  GI50: 6.81 µM
KM12; single dose 10 µM
  Percentage Cell Growth: −52.23%
SF-268; [3]
  GI50: 13.5 µM
SF-268; single dose 10 µM
  Percentage Cell Growth: −30.99%
SF-295; [3]
  GI50: 13.8 µM
SF-295; single dose 10 µM
  Percentage Cell Growth: −84.72%
SF-539; [3]
  GI50: 11.1 µM
SF-539; single dose 10 µM
  Percentage Cell Growth: −100.00%
SNB-75; [3]
  GI50: 11.1 µM
SNB-75; single dose 10 µM
  Percentage Cell Growth: −79.32%
U251; U-251, 48 h, single dose 10 µM, read-out: Percentage Cell Growth
  activity at 10 µM: -71.7%
U251; U-251, five concentrations, 48 h, SRB, read-out: GI50
  GI50: 12.7 µM
MALME-3M; [3]
  GI50: 14.6 µM
MALME-3M; single dose 10 µM
  Percentage Cell Growth: −100.00%
MDA-MB-435; [3]
  GI50: 13.4 µM
MDA-MB-435; single dose 10 µM
  Percentage Cell Growth: −89.21%
SK-MEL-5; [3]
  GI50: 11.1 µM
SK-MEL-5; single dose 10 µM
  Percentage Cell Growth: −90.10%
IGROV1; Homo sapiens, IGROV-1, five concentrations, 48 h, SRB, read-out: GI50
  GI50: 16.1 µM
IGROV1; single dose 10 µM
  Percentage Cell Growth: −81.43%
OVCAR-3; [3]
  GI50: 12.2 µM
OVCAR-3; single dose 10 µM
  Percentage Cell Growth: −66.02%
OVCAR-5; [3]
  GI50: 18.6 µM
OVCAR-5; single dose 10 µM
  Percentage Cell Growth: −83.37%
OVCAR-8; [3]
  GI50: 18.8 µM
OVCAR-8; single dose 10 µM
  Percentage Cell Growth: −12.90%
ACHN; [3]
  GI50: 12 µM
ACHN; single dose 10 µM
  Percentage Cell Growth: −100.00%
CAKI-1; single dose 10 µM
  Percentage Cell Growth: −93.59%
CAKI-1; [3]
  GI50: 5.92 µM
RXF 393; [3]
  GI50: 13.2 µM
RXF 393; single dose 10 µM
  Percentage Cell Growth: −82.88%
TK-10; [3]
  GI50: 15.8 µM
TK-10; single dose 10 µM
  Percentage Cell Growth: −67.30%
DU-145; single dose 10 µM
  Percentage Cell Growth: −8.34%
DU-145; [3]
  GI50: 14.1 µM
MDA-MB-231/ATCC; MDA-MB-231/ATCC, single dose 10 µM, read-out: Percentage Cell Growth
  activity at 10 µM: -56.9%
MDA-MB-231/ATCC; MDA-MB-231, MDA-MB-31/ATCC, five concentrations, SRB, read-out: GI50
  GI50: 15.1 µM
HS 578T; single dose 10 µM
  Percentage Cell Growth: −23.26%
HS 578T; [3]
  GI50: 20.1 µM
T-47D; Homo sapiens, T47D, five concentrations, 48 h, SRB, read-out: GI50
  GI50: 10.9 µM
T-47D; single dose 10 µM
  Percentage Cell Growth: −32.56%
NSCL cancer subpanel
  MID b, average sensitivity of all cell line of particular subpanel: 11.88 µM
  Selectivity, ratio MID a: MID b: 1.02
Renal Cancer subpanel
  MID b, average sensitivity of all cell line of particular subpanel: 13.02 µM
  Selectivity, ratio MID a: MID b: 0.93
Ovarian Cancer subpanel
  MID b, average sensitivity of all cell line of particular subpanel: 14.10 µM
  Selectivity, ratio MID a: MID b: 0.86
